Values quoted from earlier work, collected in patent US8450339B2, “Compositions for treatment of common cold” (Takeda Pharma A/S, priority 2001, dated 2013).
Counter-ions that a name gives are not always drawn.

Key:
[1] = following administration
[2] = aqueous solution

| SMILES | Mean duration of effect [1] | Stability optimum, pH [2] |
| --- | --- | --- |
| CC(C)[N+]1(C)[C@@H]2CC[C@H]1CC(OC(=O)C(CO)c1ccccc1)C2.[Br-] (some centres unmarked) [ipratropium bromide] | 6 h |  |
| Cc1cc(C(C)(C)C)cc(C)c1CC1=NCCN1 [xylometazoline hydrochloride] |  | 2 |
